Assay results reported in patent US12145923B2, “Tetrahydroisoquinoline compound, preparation method therefor, pharmaceutical composition containing same, and use thereof” (SHANGHAI INSTITUTE OF MATERIA MEDICA, CHINESE ACADEMY OF …, priority 2018, dated 2024).
pIC50: −log10 of the molar value. Where two headings read alike, the source gives them in different places.

What was measured:
[1] = tested on: tumor necrosis factor-α secretion in RAW 264.7 cells; assay: Inhibition of LPS-stimulated tumor necrosis factor-α secretion in RAW 264.7 cells (ELISA); assay type: cell-based, mouse; settings: Mus musculus, RAW264.7, 4 h, read-out: Tumor necrosis factor-α inhibition rate/%
Protocol: After the activation by bacterial lipopolysaccharide (LPS), various inflammatory mediators such as tumor necrosis factor-α will be released; Phosphodiesterase PDE4 is also expressed in macrophages, and the inhibitory activity of the compound on phosphodiesterase PDE4 can be reflected by detecting the secretion of tumor necrosis factor-α.
Under the stimulation of 1 μg/ml LPS (L5886, Sigma, St. Louis, MO, USA), the cells were cultured in a 37° C., 5% CO2 incubator for 4 h. The background control with no stimulant and stimulation control wells were also set, with a total volume of 200 μl. The culture supernatant was collected by centrifugation, and the secretion level of tumor necrosis factor-α in the culture supernatant was detected by enzyme-linked immunosorbent assay. The tumor necrosis factor-α detection kit was purchased from BD Pharmingen (San Diego, CA, USA).

[2] = tested on: TNF-α secretion in PBMC; assay: Inhibition of LPS-stimulated TNF-α secretion in PBMC (ELISA); assay type: cell-based; settings: Homo sapiens; for inhibition at 1 µM / inhibition at 10 µM: read-out: Inhibition rate %
Description: According to the difference in cell density in human blood, PBMC (peripheral blood mononuclear cell, PBMC) was directly separated and purified by gradient centrifugation using lymphocyte separation fluid. The cell type was mononuclear cells in blood, mainly including lymphocytes (T/B), monocytes, macrophages, dendritic cells and other minor cell types, of which lymphocytes account for a large part, which can directly in vitro simulate the blood immune environment.
PBMC cells isolated from human blood were implanted into 96-well plates at 2*10^5/ml; compounds in gradients were added, with at least three replicates for each gradient; After the PBMCs were incubated at 37° C., 5% CO2 for 1 hour, LPS was added (the final concentration was 10 ug/ml) to stimulate PBMC to express TNF-α, and incubated for another 18-20 h at 37° C., 5% C02. The 96-well plate was collected. The background control with no stimulant and stimulation control wells were also set, with a total volume of 200 μl. The culture supernatant was collected by centrifugation, and the expression level of TNF-α in the culture supernatant was detected by ELISA.

[3] = tested on: RAW 264.7 cells; assay: Cytotoxicity on RAW 264.7 cells (CCK-8 method); assay type: cell-based, mouse
Protocol: Mouse RAW 264.7 cells were purchased from American Type Culture Collection (Manassas, VA, USA), and cultivated in DMEM culture medium (Hyclone, South Logan, UT, USA) containing 10% fetal bovine serum (Hyclone, South Logan, UT, USA). Cells were collected and counted before use, and inoculated in a 96-well plate (Corning, NY, USA) at 1×10^5/well. […] 20 μl of CCK-8 solution (Dojindo, Kumamoto, Japan) was added at 30 min before the end of the culture. After the cultivation was ended, the absorbance OD value was measured at 450 nm (reference 650 nm) on amicroplate reader (Molecular Devices, Sunnyvale, CA, USA). The toxicity of the compound on RAW 264.7 cells was calculated by dividing the OD value of the test sample by the OD value of the cell control well, which was labeled as the cell survival rate M %.

[4] = biological target: Human PDE4D catalytic domain (Homo sapiens (Human), UniProt Q08499); assay: Scintillation Proximity Assay (SPA), inhibition of PDE4D catalytic domain activity; assay type: biochemical; settings: for inhibition at 1 µM: read-out: PDE4D enzyme activity inhibition rate %; for IC50: PDE4D, unit given as mM, read-out: IC50
Sequence of Human PDE4D catalytic domain (Q08499 386-715): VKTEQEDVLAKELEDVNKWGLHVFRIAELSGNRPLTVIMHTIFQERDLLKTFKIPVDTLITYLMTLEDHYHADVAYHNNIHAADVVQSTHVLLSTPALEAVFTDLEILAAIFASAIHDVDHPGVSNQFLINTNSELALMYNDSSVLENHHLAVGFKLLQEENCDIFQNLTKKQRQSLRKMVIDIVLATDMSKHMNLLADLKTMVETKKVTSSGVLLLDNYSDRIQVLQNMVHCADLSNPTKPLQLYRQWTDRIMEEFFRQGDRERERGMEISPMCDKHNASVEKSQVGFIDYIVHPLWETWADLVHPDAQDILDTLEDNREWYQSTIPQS
Protocol: The scintillation Proximity Assay (SPA) method was used to determine the inhibitory effect of compounds on the activity of PDE4D catalytic domain. Human PDE4D catalytic domain protein was obtained by expression and purification in E. coli. […] [^3H]-cAMP, scintillation beads (RPNQO150, Perkin Elmer), and 96-well scintillation microplates (Isoplate-96, Perkin Elmer) were purchased from Perkin Elmer Company.
Finally, 10 μl [^3H]-cAMP (0.005 μCi/μl) was added and incubated for 30 min at 30° C. in a water bath. 50 μl SPA beads was added to quench the reaction, shaked appropriately, and stood for 20 minutes. A microplate scintillation counter was used.

Compound	inhibition at 1 µM ([4]; Compound concentration: 1 μM)	IC50 [4]	inhibition at 0.5 µM ([1]; RAW 264.7, 0.5 μM)	inhibition at 5 µM ([1]; RAW 264.7, 5 μM)	inhibition at 50 µM ([1]; RAW 264.7, 50 μM)	inhibition at 1 µM ([2]; TNF-α secretion in PBMC, 1 μM)	inhibition at 10 µM ([2]; TNF-α secretion in PBMC, 10 μM)	Cell survival rate/% ([3]; RAW 264.7, 0.5 μM)	Cell survival rate/% ([3]; RAW 264.7, 5 μM)	Cell survival rate/% ([3]; RAW 264.7, 50 μM)	pIC50 ([2]; TNF-α secretion in PBMC, read-out: IC50)	inhibition at 0.5 µM [1]	inhibition at 5 µM [1]	inhibition at 50 µM [1]	inhibition at 1 µM ([2]; PBMC)	inhibition at 10 µM ([2]; PBMC)	inhibition at 1 µM [4]
COc1cc2c(cc1OC1CCCC1)[C@H](CCc1c[nH]c3cc(C)ccc13)N(C=O)CC2 [(S)-C3, (S)-7-(cyclopentyloxy)-6-methoxy-1-(2-(6-methyl-1H-indol-3-yl)ethyl)-3,4-dihydroisoquinoline-2(1H)-formaldehyde]	24.1%		6.3%	6%	95.1%	12.1%	79.2%	88.2%	100%	89.2%							
COc1cc2c(cc1OC)[C@H](CCc1c[nH]c3ccccc13)N(C(=O)C(F)(F)F)CC2 [(S)-B10, (S)-1-(1-(2-(1H-indol-3-yl)ethyl)-6,7-dimethoxy-3,4-dihydroisoquinoline-2(1H)-yl)-2,2,2-trifluoroethane-1-one]	29.5%		-3%	-27.9%	33.7%	19.9%	59.6%	89.2%	84.9%	93.8%							
COc1cc2c(cc1OC)C(CCc1c[nH]c3ccccc13)N(CC1CCOCC1)CC2 (centres unmarked) [Compound B7, 1-(2-(1H-indol-3-yl)ethyl)-6,7-dimethoxy-2-((tetrahydro-2H-pyran-4-yl)methyl)-1,2,3,4-tetrahydroisoquinoline]	6.7%		4.3%	2.3%	82.2%		36.6%	98.1%	114.1%	122.6%							
COc1cc2c(cc1OC)C(CCc1c[nH]c3ccccc13)N(C(=O)c1ccncc1)CC2 (centres unmarked) [Compound B1]	30.7%		-2.4%	-17.8%	67.9%	39.8%	58.5%	78%	74.9%	78.8%							
COCC(=O)N1CCc2cc(OC)c(OC)cc2[C@@H]1CCc1c[nH]c2ccccc12 [(S)-B11, (S)-1-(1-(2-(1H-indol-3-yl)ethyl)-6,7-dimethoxy-3,4-dihydroisoquinoline-2(1H)-yl)-2-methoxyethane-1-one]	82.9%	0.00019 mM	-7.8%	1.1%	51.3%	60.1%	90.7%	110.9%	111.2%	102.2%	6.62						
COC(=O)CN1CCc2cc(OC)c(OC)cc2C1CCc1c[nH]c2ccccc12 (centres unmarked) [Compound B5, methyl-2-(1-(2-(1H-indol-3-yl)ethyl)-6,7-dimethoxy-3,4-dihydroisoquinoline-2(1H)-yl) acetate]								86%	88.2%	103.8%		-2.1%	20%	47.9%	21.7%	55.2%	39.1%

More lines, main results first:

inhibition at 1 µM ([4]; Compound concentration: 1 μM)	IC50 [4]	Compound	inhibition at 0.5 µM ([1]; RAW 264.7, 0.5 μM)	inhibition at 5 µM ([1]; RAW 264.7, 5 μM)	inhibition at 50 µM ([1]; RAW 264.7, 50 μM)	inhibition at 1 µM ([2]; TNF-α secretion in PBMC, 1 μM)	inhibition at 10 µM ([2]; TNF-α secretion in PBMC, 10 μM)	Cell survival rate/% ([3]; RAW 264.7, 0.5 μM)	Cell survival rate/% ([3]; RAW 264.7, 5 μM)	Cell survival rate/% ([3]; RAW 264.7, 50 μM)	pIC50 ([2]; TNF-α secretion in PBMC, read-out: IC50)	inhibition at 0.5 µM [1]	inhibition at 5 µM [1]	inhibition at 50 µM [1]	inhibition at 1 µM ([2]; PBMC)	inhibition at 10 µM ([2]; PBMC)	inhibition at 1 µM [4]
6.4%		COc1cc2c(cc1OC1CCCC1)C(CCc1c[nH]c3cc(C)ccc13)N(C=O)CC2 (centres unmarked) [Compound C3, 7-(cyclopentyloxy)-6-methoxy-1-(2-(6-methyl-1H-indol-3-yl)ethyl)-3,4-dihydroisoquinoline-2(1H)-formaldehyde]	-0.9%	5.9%	59.7%		36.4%	115.1%	120.5%	112.6%							
68.5%	0.00057 mM	COc1cc2c(cc1OC)C(CCc1c[nH]c3ccccc13)N(CCS(C)(=O)=O)CC2 (centres unmarked) [Compound B8, 1-(2-(1H-indol-3-yl)ethyl)-6,7-dimethoxy-2-(2-(methylsulfonyl)ethyl)-1,2,3,4-tetrahydroisoquinoline]	33.6%	36.1%	31.8%	31.6%	77.8%	113.4%	100.7%	100.5%							
19.5%		COc1cc2c(cc1OC)C(CCc1c[nH]c3ccccc13)N(CC(F)(F)F)CC2 (centres unmarked) [Compound B6, 1-(2-(1H-indol-3-yl)ethyl)-6,7-dimethoxy-2-(2,2,2-trifluoroethyl)-1,2,3,4-tetrahydroisoquinoline]	8.2%	-7.1%	67.5%		-23.2%	117.3%	87%	95.3%							
16.4%		COc1cc2c(cc1OC)C(CCc1c[nH]c3ccccc13)N(C(=O)C1CCOCC1)CC2 (centres unmarked) [Compound B3, (1-(2-(1H-indol-3-yl)ethyl)-6,7-dimethoxy-3,4-dihydroisoquinoline-2(1H)-yl)(tetrahydro-2H-pyran-4-yl)ketone]	4.4%	10.8%	62.5%	33.3%	60.2%	97.7%	113.9%	79.6%							
19.2%		COCCN1CCc2cc(OC)c(OC)cc2C1CCc1c[nH]c2ccccc12 (centres unmarked) [Compound B2, 1-(2-(1H-indol-3-yl)ethyl)-6,7-dimethoxy-2-(2-methoxyethyl)-1,2,3,4-tetrahydroisoquinoline]	6.2%	18.8%	83.9%		25.7%	88.3%	83.5%	71.4%							
